According to patent US20220160680A1, “MICROORGANISM MIXTURES, MOLECULES DERIVED THEREFROM, AND METHODS OF USE THEREOF” (B. G. Negev Technologies and Applications Ltd., at …, priority 2018, published 2022):
Entries after “also recorded” stand apart in the source; their conditions may differ. Read-outs that look alike come from different tables or passages of the source.

What was measured:
Peritoneal macrophages = test: In vitro LPS stimulation of peritoneal macrophages, cytokine ELISA (24 hr); type: cell-based, mice; details: 100 μM, 0.1 μg/ml LPS
Protocol: Peritoneal macrophages were harvested using the protocol as described previously (Zhang et al., 2008). Elicited macrophages were harvested from WT mice which had received a 2.5 ml intraperitoneal administration of 3% Brewer thioglycolate broth (Sigma, UK) 72 hr prior collection.
Peritoneal macrophages cells (5×10^5/ml) were cultured with 0.1 μg/ml Lipopolysaccharides (LPS-Escherichia coli serotype 0127:B8, Sigma-Aldrich) and in the presence of 100 μM: tryptophol acetate, tyrosol acetate, dopamine HCl, caffeic acid, or combination of tryptophol acetate and tyrosol acetate, for 24 hr. Following culture, supernatants were collected and stored at −20° C. for the detection of the IL-6 cytokine. For IL-la detection, the inventors induced macrophages lysis by adding fresh RPMI medium and thawing three times.
IL-la and IL-6 levels were measured in peritoneal exudate fluids and LPS-stimulated culture supernatants by ELISA. To detect the cytokines, a R&D ELISA kit (Catalog #MLA00 and DY406, respectively) was used as per the manufacturer's instructions. A standard curve was constructed using serial dilutions of purified IL-la or IL-6 starting at a concentration of 15 ng/ml.

V. cholerae toxin = test: GM1-ELISA cholerae toxin detection assay; type: cell-based, Vibrio cholerae
Protocol: GM1 (monosialotetrahexosylganglioside) was seeded and immobilized on a 96-well white/clear bottom microtiter plate (Greiner) microtiter plates with the following procedure: GM1 stock solution (2 mg/mL in PBS) was diluted with PBS (final conc. 10 μg/mL). 200 μL of the GM1 solution was added to each well and incubated at 37° C. without shaking for 4-16 hours. The plates were washed with PBS (×3). Bovine serum albumin (BSA) was dissolved in PBS (final conc. 4 mg/mL) and 200 μL of the BSA-PBS were added to each well and incubated at 37° C. without shaking for at least 4 hours. The plates were washed with PBS (×3) and were stored in fridge until use. VC1 wild-type strain with of the tested compounds (Tryptophol acetate and Tyrosol acetate both in concentration of 100 μM) and a control with bacteria only, were grown and incubated with aeration and shaking overnight in LB medium at 30° C. The cultures were spinned-down for 5 min at 5,000 rcf and the supernatant was taken and diluted 1:2 with a BSA-PBS 4 mg/mL solution. […] 100 μL of the luminol working solution were added to each well, the plate was shaken for 1.5-2 minutes and the luminescence was measured using a Microtiter Plate Reader (Varioskan Flash, Thermo). Luminescence values were normalized to the control.

[1] = Oxygen radical absorbance capacity (ORAC) assay; type: biochemical; details: AAPH-induced
From the text: FIGS. 34A-34B are graphs showing the anti-oxidation effect of tryptophol acetate and tyrosol acetate. Anti-oxidative capacity of the molecules as measured by DPPH (34A) and ORAC (34B) assays. 34A. The results are presented as a percentage of absorbance inhibition (517 nm, the absorbance maximum of DPPH) in the presence of tryptophol acetate (1) alone, tyrosol acetate alone (2) alone, and 1+2 together. 34B. Fluorescence decay of fluorescein induced by AAPH in the absence or presence of 1 and 2. Reaction mixtures containing fluorescein (60 nM) and AAPH (18.75 mM) in 200 μl of phosphate buffer (75 mM, pH 7.4) were incubated at 37° C. for 800 min. Changes in fluorescence intensity emitted by fluorescein were monitored. Results are presented as the net area under the curve (AUC). Each value is the mean±SD of triplicate experiments. ***p<0.0001
The ORAC experiment measures the quenching of fluorescein emission by peroxyl radicals, and inhibition of the oxidation reaction by molecular species added to the solution.

Vibrio cholerae MM920 = test: Quorum sensing bioluminescence reporter assay; type: cell-based; details: for IC50: Vibrio cholerae, read-out: IC50 of QS inhibition in V. cholera
Protocol: Bioluminescence assay was performed with mutant bacteria lacking the nucleotide sequences encoding the relevant autoinducers (AI). Additionally, the bacteria were cloned with bioluminescence reporter plasmids in order to measure their luminescence intensity when quorum sensing gene expression occurs. Ninety-six (96) well microtiter plate assays were used to assess AI activation (agonist) or inhibition (antagonist) of the following bacteria: Agrobacterium tumefaciens, which responds to the C8 autoinducer, and both Vibrio cholerae and Vibrio harveyi, which respond to the (S)-4,5-dihydroxy-2,3-pentanedione (DPD) autoinducer to communicate.
Agrobacterium tumefaciens A136 pCF218 pMV26 culture was grown in Luria-Bertani broth (LB; Miller's broth) supplemented with 25 μg/ml of kanamycin and 4.5 μg/ml of tetracycline at 28-30° C. for 24 h. Both Vibrio harveyi and Vibrio cholerae strains were grown in LB Broth (Lennox) supplemented with tetracycline at 30° C. for 24 h. The overnight cultures were diluted to an absorbance density (OD600) of 0.05 by fresh LB medium. The probiotic yogurt (e.g., kefir)-extracted molecules were tested at gradient concentration in two types of experiments: competition assay in the absence (activation/agonist) or presence (inhibition/antagonist) of 400 pM 3-oxo-C8-HSL (A. tumefaciens A136 pCF218 pMV26) CAI1 (Vibrio Cholerae MM920) 200 nM DPD (Vibrio harveyi MM30) and the OD600 of 0.05 by fresh LB medium. A clear bottom 96-well microliter plate was prepared with wells containing test compounds serially diluted into the LB medium (triplicates). A total of 100 μl of the diluted cells were added to each well. The control sample contained the bacteria and specific AI molecules without the yogurt extracted molecules. Luminescence was measured every 20 min for 19 h with continuous shaking at 30° C., using a Microtiter Plate Reader (Varioskan Flash, Thermo). Average luminescence values divided by OD600 values were plotted against the added compound concentration.
The effect of the Kefir biomass crude extract molecules on the following bacteria, A. tumefaciens A136, V. cholerae MM920 and V. harveyi MM30 were measured as described by Brenier et al. (2008). The overnight culture was diluted to an absorbance density (OD600) of 0.05 by fresh LB medium. A clear bottom 96-well microliter plate was prepared with wells containing test compounds serially diluted into the LB medium (triplicates). A total of 100 μL of the diluted cells was added to each well. The control sample contained the bacteria and specific autoinducer molecules without the kefir crude extracted molecules. Luminescence was measured every 20 min for 19 h with continuous shaking at 30° C., using a Microtiter Plate Reader (Varioskan Flash, Thermo). Two types of experiments were performed: a competition assay in the presence of 400 pM 3-oxo-C8-HSL (A. tumefaciens A136), CAI-1 (V. Cholerae MM920) 200 nM DPD (V. harveyi MM30) and the other in the absence of these AI's to measure agonistic activity of the crude extracted molecules. Average luminescence values divided by OD600 values were plotted against the added compound concentration.

[2] = tested on: V. cholerae VC1 (WT) and MM920; test: V. cholerae biofilm modulation (CLSM, crystal violet); type: cell-based, Vibrio cholerae
Protocol: The various pathogenic indicator strains used in this study were V. cholerae strain MM920 (ACqsA AluxQ), Vibrio harveyi strain MM30 (LuxS, Tn5). To initiate biofilm formation, bacteria was grown in the absence of the V. cholerae autoinducer 1 (CAI1). In addition, the bacteria were grown in presence of: 900 nM CAI1 (Vibrio Cholerae MM920), 900 nM CAI1, 200 μM Tryptophol acetate and 200 μM Tyrosol acetate, and 200 μM Tryptophol acetate and 200 μM Tyrosol acetate.
Biofilms were grown under shaking conditions at 30° C. in 96-well plate (Thermo Scientific, Rochester, N.Y., USA). […] The stained cells were washed twice with PBS. Biofilm images were taken by CLSM (Plan-Apochromat 20×/0.8 M27, Zeiss LSM880, Germany).
For static biofilm assay, overnight cultures of V. cholerae strain MM920 was diluted 1:10 in fresh LB medium containing a final concentration of 100 μM from each Tryptophol acetate and Tyrosol acetate or DMSO (up to 1%) as control. […] One in absence of the V. cholerae autoinducer (CAI-1) and the other one in presence of 900 nM CAI-1. Biofilms were grown under non-shaking conditions at 37° C. in 96-well plate (Thermo Scientific, Rochester, N.Y., USA). […] The stained cells were washed twice with PBS. Biofilm images were taken by CLSM (Plan-Apochromat 20×/0.8 M27, Zeiss LSM880, Germany).
Biofilm matrixes of V. cholerae VC1 WT (FIGS. 23Ai and 23Aii), and the V. cholerae MM920 mutant (FIGS. 23Aiii and 23Aiv) were grown for 24 hours with or without tryptophol acetate in the growth medium, and stained using the BacLight® Dead/Live Kit to distinguish viable cells.

| SMILES | Production of IL-6 (Peritoneal macrophages) | Production of IL-la (Peritoneal macrophages) | V. cholerae toxin levels (V. cholerae toxin) | Fluorescence decay of fluorescein [1] | IC50 (Vibrio cholerae MM920; high volume) [µM] | Effect on QS in V. cholera, high volume (Vibrio cholerae MM920; high volume) | Effect on QS in V. cholera, low volume (Vibrio cholerae MM920) | Biofilm volume, crystal violet (CV) assay ([2]; 0-200 μM, 24 hr) | Biofilm of V. cholerae MM920 with CAI-1 ([2]; 900 nM CAI-1 and 100 μM) | Biofilm matrix of V. cholerae VC1 WT ([2]; 100 μM, 24 hours) | IC50 (Vibrio cholerae MM920) [µM] | Effect on QS in V. cholera, high volume (Vibrio cholerae MM920; high volume, listed as 180 molecule) | Effect on QS in V. cholera, low volume (Vibrio cholerae MM920; listed as 180 molecule) | V. cholerae biofilm production ([2]; 100 μM) |
| --- | --- | --- | --- | --- | --- | --- | --- | --- | --- | --- | --- | --- | --- | --- |
| CC(=O)OCCc1c[nH]c2ccccc12 [Tryptophol acetate] | dramatically reduced | dramatically reduced | reduce V. cholerae toxin levels in a dose dependent manner | around 400 min | 12.7 ± 2 | inhibits QS | activates QS | increased biofilm volume | re-formation of a dense and uniform biofilm layer | significantly denser biofilm |  |  |  |  |
| CC(=O)OCCc1ccc(O)cc1 [Tyrosol acetate] | dramatically reduced | dramatically reduced | inhibit; also recorded: reduction of toxin production by V. cholerae in a dose dependent manner | ~800 min |  | totally inhibits QS | activates QS |  |  |  | 24.4 ± 2.4 | totally inhibited QS | activated QS | inhibit |
